Tests used:
PI3Kα = target: T1, PI3Kα (Homo sapiens, UniProt P42336); test: ADP-Glo kinase assay, PI3Kα enzyme inhibition; type: biochemical; settings: at 1 nM
T1 construct: purchased SignalChem P27-122DH
Procedure: The enzymatic inhibitory assays of all target compounds against PI3Kα were performed with the ADP-Glo assay (Promega, Madison, WI, USA, catalog No. V9102/3). Briefly, compounds were continuously diluted to a certain concentration. […] The mixture was added to a 96-well plate and incubated in a dark place at ambient temperature for 40 min. Then, the kinase reaction was stopped by adding of ADP-Glo reagent and the plate was incubated again at ambient temperature for another 40 min. The kinase detection reagent was added and the signal was collected via PerkinElmer Envision plate reader (PE, Boston, MA, USA).

MCF-7 cells = test: CCK-8 cell viability assay, MCF-7; type: cell-based; settings: Homo sapiens, MCF7, 72 h, mean (n = 3)
Procedure: (§1) MCF-7 and HCT-116 cells were purchased from the Meilunbio Biotechnology Co., Ltd. (Dalian, China). Cells were cultured at 37 °C with 5% CO2, using DMEM or RPMI 1640 medium (Meilunbio, Dalian, China) with 10% (v/v) fetal bovine serum (Gibco, San Diego, CA, USA) and 1% (v/v) penicillin and streptomycin (Meilunbio, Dalian, China). CCK-8 assay was used to determine the inhibitory effect in vitro. In short, cells were incubated into 96-well plates at the rate of 5000 cells per well. After 24 h of incubation, 100 μL medium was added, which contained a specific concentration of the test compound. After 72 h, 10 μL CCK-8 regent was added and the plate was incubated at 37 °C, 5% CO2 for 1 h. The optical density of each hole at 450 nm was read by a BioTek TS-800 microplate reader. GraphPad Prism 9.3.1 software was used to calculate the IC50 value.

HCT-116 cells = test: CCK-8 cell viability assay, HCT-116; type: cell-based; settings: Homo sapiens, mean (n = 3)
Procedure: as §1

T1 sequence (P42336 whole entry): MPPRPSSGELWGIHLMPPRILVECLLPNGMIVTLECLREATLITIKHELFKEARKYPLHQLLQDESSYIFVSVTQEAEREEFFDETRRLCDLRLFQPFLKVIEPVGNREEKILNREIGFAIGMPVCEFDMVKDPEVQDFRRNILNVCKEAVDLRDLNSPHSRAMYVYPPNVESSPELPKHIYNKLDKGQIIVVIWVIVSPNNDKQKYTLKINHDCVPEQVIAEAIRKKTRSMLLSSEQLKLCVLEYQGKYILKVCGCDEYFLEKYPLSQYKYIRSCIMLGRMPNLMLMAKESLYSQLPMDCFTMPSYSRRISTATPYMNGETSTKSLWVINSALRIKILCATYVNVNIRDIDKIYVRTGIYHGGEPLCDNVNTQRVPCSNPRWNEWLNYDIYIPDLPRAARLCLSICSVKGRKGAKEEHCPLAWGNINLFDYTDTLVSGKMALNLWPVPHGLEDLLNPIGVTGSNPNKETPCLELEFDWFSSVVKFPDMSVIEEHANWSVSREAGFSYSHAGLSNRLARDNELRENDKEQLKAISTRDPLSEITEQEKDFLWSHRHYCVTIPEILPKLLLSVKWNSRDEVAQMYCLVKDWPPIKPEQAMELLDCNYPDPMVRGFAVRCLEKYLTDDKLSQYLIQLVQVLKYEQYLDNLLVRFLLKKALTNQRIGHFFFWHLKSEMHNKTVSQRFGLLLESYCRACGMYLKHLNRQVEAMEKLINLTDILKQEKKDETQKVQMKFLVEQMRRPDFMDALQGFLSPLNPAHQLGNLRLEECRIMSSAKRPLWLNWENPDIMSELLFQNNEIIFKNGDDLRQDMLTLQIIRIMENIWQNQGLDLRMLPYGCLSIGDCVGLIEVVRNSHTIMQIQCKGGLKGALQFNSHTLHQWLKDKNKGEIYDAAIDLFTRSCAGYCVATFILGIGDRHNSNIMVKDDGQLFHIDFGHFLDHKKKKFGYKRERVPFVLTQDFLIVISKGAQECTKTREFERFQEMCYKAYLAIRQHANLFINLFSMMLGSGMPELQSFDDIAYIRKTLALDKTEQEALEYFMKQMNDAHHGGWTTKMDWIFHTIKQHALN
T1 sequence (P27986 whole entry partner): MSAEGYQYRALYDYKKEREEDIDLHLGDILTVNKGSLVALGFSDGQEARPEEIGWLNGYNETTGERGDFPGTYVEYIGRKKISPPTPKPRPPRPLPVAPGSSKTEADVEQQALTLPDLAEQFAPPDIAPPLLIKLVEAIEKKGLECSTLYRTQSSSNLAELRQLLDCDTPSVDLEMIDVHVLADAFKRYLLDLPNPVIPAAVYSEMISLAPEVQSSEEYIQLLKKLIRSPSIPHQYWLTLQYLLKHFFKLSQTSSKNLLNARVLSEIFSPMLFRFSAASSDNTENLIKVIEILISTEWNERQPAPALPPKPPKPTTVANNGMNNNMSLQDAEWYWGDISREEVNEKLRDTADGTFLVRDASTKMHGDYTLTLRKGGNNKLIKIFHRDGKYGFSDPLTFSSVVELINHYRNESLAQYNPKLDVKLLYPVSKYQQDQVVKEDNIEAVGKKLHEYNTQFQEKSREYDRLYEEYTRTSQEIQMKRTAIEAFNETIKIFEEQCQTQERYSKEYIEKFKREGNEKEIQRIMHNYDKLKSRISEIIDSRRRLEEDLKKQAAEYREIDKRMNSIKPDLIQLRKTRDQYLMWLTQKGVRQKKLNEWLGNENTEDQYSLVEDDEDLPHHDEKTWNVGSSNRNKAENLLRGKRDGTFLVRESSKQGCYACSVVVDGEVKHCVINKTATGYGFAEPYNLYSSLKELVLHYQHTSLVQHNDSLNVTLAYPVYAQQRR

Row | SMILES | inhibition at 0.001 µM (PI3Kα; Table 1) [%] | IC50 (MCF-7 cells; Table 1) [µM] | IC50 (HCT-116 cells; Table 1, 72 h) [µM] | inhibition at 0.001 µM (PI3Kα; Table 2) [%] | IC50 (MCF-7 cells; Table 2) [µM] | IC50 (HCT-116 cells; Table 2, 72 h) [µM]
1 | COc1ncc(-c2ccc3c(c2)sc2c(N4CCOCC4)ncnc23)cc1NS(=O)(=O)c1ccc(F)cc1F [11a, 2,4-difluoro-N-(2-methoxy-5-(4-morpholinobenzo[4,5]thieno[3,2-d]pyrimidin-7-yl)pyridin-3-yl)benzenesulfonamide] | 10 | 0.96 ± 0.23 | > 1 |  |  | 
2 | COc1ncc(-c2ccc3c(c2)sc2c(N4CCC(C)CC4)ncnc23)cc1NS(=O)(=O)c1ccc(F)cc1F [11b, N-(2-methoxy-5-(4-(4-methylpiperidin-1-yl)benzo[4,5]thieno[3,2-d]pyrimidin-7-yl)pyridin-3-yl) 2,4-difluorobenzenesulfonamide] | 10 | > 1 | > 1 |  |  | 
3 | COc1ncc(-c2ccc3c(c2)sc2c(NCCO)ncnc23)cc1NS(=O)(=O)c1ccc(F)cc1F [11c, N-(5-(4-((2-hydroxyethyl)amino)benzo[4,5]thieno[3,2-d]pyrimidin-7-yl)-2-methoxypyridin-3-yl) -2,4-difluoro-benzenesulfonamide] | 29 | 0.85 ± 0.37 | 0.59 ± 0.18 |  |  | 
4 | COc1ncc(-c2ccc3c(c2)sc2c(NC4CC4)ncnc23)cc1NS(=O)(=O)c1ccc(F)cc1F [11d, N-(5-(4-(cyclopropylamino)benzo[4,5]thieno[3,2-d]pyrimidin-7-yl)-2-methoxypyridin-3-yl)-2,4-difluorobenzenesulfonamide] | 40 | 0.51 ± 0.11 | 0.19 ± 0.12 |  |  | 
5 | COCCCNc1ncnc2c1sc1cc(-c3cnc(OC)c(NS(=O)(=O)c4ccc(F)cc4F)c3)ccc12 [11e, N-(2-methoxy-5-(4-((3-methoxypropyl)amino)benzo[4,5]thieno[3,2-d]pyrimidin-7-yl)pyridin-3-yl)-2,4-difluorobenzenesulfonamide] | 35 | > 1 | > 1 |  |  | 
6 | COc1ncc(-c2ccc3c(c2)sc2c(NCCN)ncnc23)cc1NS(=O)(=O)c1ccc(F)cc1F [11f, N-(5-(4-((2-aminoethyl)amino)benzo[4,5]thieno[3,2-d]pyrimidin-7-yl)-2-methoxypyridin-3-yl)-2,4-difluorobenzenesulfonamide] | 10 | 0.69 ± 0.25 | 0.77 ± 0.21 |  |  | 
7 | COc1ncc(-c2ccc3c(c2)sc2c(NC(C)C)ncnc23)cc1NS(=O)(=O)c1ccc(F)cc1F [11g, N-(5-(4-(isopropylamino)benzo[4,5]thieno[3,2-d]pyrimidin-7-yl)-2-methoxypyridin-3-yl)-2,4-difluorobenzenesulfonamide] | 44 | 0.53 ± 0.16 | 0.22 ± 0.08 |  |  | 
8 | COc1ncc(-c2ccc3c(c2)sc2c(NCCN(C)C)ncnc23)cc1NS(=O)(=O)c1ccc(F)cc1F [11h, N-(5-(4-((2-(dimethylamino)ethyl)amino)benzo[4,5]thieno[3,2-d]pyrimidin-7-yl)-2-methoxypyridin-3-yl)-2,4-difluorobenzenesulfonamide] | 12 | 0.7 ± 0.21 | 0.56 ± 0.1 |  |  | 
9 | CCCCNc1ncnc2c1sc1cc(-c3cnc(OC)c(NS(=O)(=O)c4ccc(F)cc4F)c3)ccc12 [11i, N-(5-(4-(butylamino)benzo[4,5]thieno[3,2-d]pyrimidin-7-yl)-2-methoxypyridin-3-yl)-2,4-difluorobenzenesulfonamide] | 15 | > 1 | > 1 |  |  | 
10 | COc1ncc(-c2ccc3c(c2)sc2c(NCCCN4CCOCC4)ncnc23)cc1NS(=O)(=O)c1ccc(F)cc1F [11j, N-(2-methoxy-5-(4-((3-morpholinopropyl)amino)benzo[4,5]thieno[3,2-d]pyrimidin-7-yl)pyridin-3-yl)-2,4-difluorobenzenesulfonamide] | 10 | > 1 | > 1 |  |  | 
11 | COc1ncc(-c2ccc3c(c2)sc2c(OCCN(C)C)ncnc23)cc1NS(=O)(=O)c1ccc(F)cc1F [11k, N-(5-(4-(2-(dimethylamino)ethoxy)benzo[4,5]thieno[3,2-d]pyrimidin-7-yl)-2-methoxypyridin-3-yl)-2,4-difluorobenzenesulfonamide] | 13 | 0.69 ± 0.11 | 0.25 ± 0.08 |  |  | 
12 | COCCOc1ncnc2c1sc1cc(-c3cnc(OC)c(NS(=O)(=O)c4ccc(F)cc4F)c3)ccc12 [11l, N-(2-methoxy-5-(4-(2-methoxyethoxy)benzo[4,5]thieno[3,2-d]pyrimidin-7-yl)pyridin-3-yl)-2,4-difluorobenzenesulfonamide] | 18 | 0.86 ± 0.12 | > 1 |  |  | 
13 | COc1ncc(-c2cnc3ncnc(NC(C)C)c3c2)cc1NS(=O)(=O)c1ccc(F)cc1F [17a, 2,4-difluoro-N-(5-(4-(isopropylamino)pyrido[2,3-d]pyrimidin-6-yl)-2-methoxypyridin-3-yl)benzenesulfonamide] |  |  |  | 39 | 0.85 ± 0.3 | 0.59 ± 0.15
14 | COc1ncc(-c2cnc3ncnc(NC4CC4)c3c2)cc1NS(=O)(=O)c1ccc(F)cc1F [17b, N-(5-(4-(cyclopropylamino)pyrido[2,3-d]pyrimidin-6-yl)-2-methoxypyridin-3-yl)-2,4-difluorobenzenesulfonamide] |  |  |  | 21 | 0.91 ± 0.39 | 0.35 ± 0.17
15 | CCCCNc1ncnc2ncc(-c3cnc(OC)c(NS(=O)(=O)c4ccc(F)cc4F)c3)cc12 [17c, N-(5-(4-(butylamino)pyrido[2,3-d]pyrimidin-6-yl)-2-methoxypyridin-3-yl)-2,4-difluorobenzenesulfonamide] |  |  |  | 21 | > 1 | 0.83 ± 0.25
16 | COc1ncc(-c2cnc3ncnc(NCCN(C)C)c3c2)cc1NS(=O)(=O)c1ccc(F)cc1F [17d, N-(5-(4-((2-(dimethylamino)ethyl)amino)pyrido[2,3-d]pyrimidin-6-yl)-2-methoxypyridin-3-yl)-2,4-difluorobenzenesulfonamide] |  |  |  | 31 | 0.73 ± 0.19 | 0.52 ± 0.23
17 | COc1ncc(-c2cnc3ncnc(N4CCOCC4)c3c2)cc1NS(=O)(=O)c1ccc(F)cc1F [17e, N-(2-methoxy-5-(4-morpholinopyrido[2,3-d]pyrimidin-6-yl)pyridin-3-yl)2,4-difluorobenzenesulfonamide] |  |  |  | 36 | 0.92 ± 0.41 | 0.64 ± 0.2
18 | COc1ncc(-c2cnc3ncnc(N4CCC(C)CC4)c3c2)cc1NS(=O)(=O)c1ccc(F)cc1F [17f, N-(2-methoxy-5-(4-(4-methylpiperidin-1-yl)pyrido[2,3-d]pyrimidin-6-yl)pyridin-3-yl)-2,4-difluorobenzenesulfonamide] |  |  |  | 11 | 0.86 ± 0.3 | 0.51 ± 0.25
19 | COc1ncc(-c2cnc3ncnc(NCCN4CCOCC4)c3c2)cc1NS(=O)(=O)c1ccc(F)cc1F [17g, N-(2-methoxy-5-(4-((2-morpholinoethyl)amino)pyrido[2,3-d]pyrimidin-6-yl)pyridin-3-yl) -2,4-difluorobenzenesulfonamide] |  |  |  | 11 | > 1 | > 1
20 | COc1ncc(-c2cnc3ncnc(NCCO)c3c2)cc1NS(=O)(=O)c1ccc(F)cc1F [17h, N-(5-(4-((2-hydroxyethyl)amino)pyrido[2,3-d]pyrimidin-6-yl)-2-methoxypyridin-3-yl)-2,4-difluorobenzenesulfonamide] |  |  |  | 24 | 0.93 ± 0.48 | 0.69 ± 0.12
21 | COCCCNc1ncnc2ncc(-c3cnc(OC)c(NS(=O)(=O)c4ccc(F)cc4F)c3)cc12 [17i, N-(2-methoxy-5-(4-((3-methoxypropyl)amino)pyrido[2,3-d]pyrimidin-6-yl)pyridin-3-yl)-2,4-difluorobenzenesulfonamide] |  |  |  |  | > 1 | > 1
22 | COCCNc1ncnc2ncc(-c3cnc(OC)c(NS(=O)(=O)c4ccc(F)cc4F)c3)cc12 [17j, N-(2-methoxy-5-(4-((2-methoxyethyl)amino)pyrido[2,3-d]pyrimidin-6-yl)pyridin-3-yl)-2,4-difluorobenzenesulfonamide] |  |  |  | 24 | 0.75 ± 0.25 | 0.42 ± 0.12
23 | COc1ncc(-c2cnc3ncnc(NCC4CCCCC4)c3c2)cc1NS(=O)(=O)c1ccc(F)cc1F [17k, N-(5-(4-((cyclohexylmethyl)amino)pyrido[2,3-d]pyrimidin-6-yl)-2-methoxypyridin-3-yl)-2,4-difluorobenzenesulfonamide] |  |  |  | 22 | > 1 | > 1
24 | COc1ncc(-c2cnc3ncnc(NCC4CC4)c3c2)cc1NS(=O)(=O)c1ccc(F)cc1F [17l, N-(5-(4-((cyclopropylmethyl)amino)pyrido[2,3-d]pyrimidin-6-yl)-2-methoxypyridin-3-yl)-2,4-difluorobenzenesulfonamide] |  |  |  | 25 | 0.63 ± 0.12 | 0.47 ± 0.17

Reference: PMC10054477, “Design, Synthesis, and Biological Evaluation of Sulfonamide Methoxypyridine Derivatives as Novel PI3K/mTOR Dual Inhibitors” (Pharmaceuticals, 2023)
